Consider 30 compounds from patent publication US8691865B2 (AbbVie Inc., priority 2008, dated 2014).

In the first assay the target is human Cav2.2 (Homo sapiens, UniProt Q00975). In words: Assessment of calcium channel activity using FLIPR (Ca2+ influx in IMR32 cells). Format: cell-based.
Sequence of human Cav2.2 (Q00975 whole entry): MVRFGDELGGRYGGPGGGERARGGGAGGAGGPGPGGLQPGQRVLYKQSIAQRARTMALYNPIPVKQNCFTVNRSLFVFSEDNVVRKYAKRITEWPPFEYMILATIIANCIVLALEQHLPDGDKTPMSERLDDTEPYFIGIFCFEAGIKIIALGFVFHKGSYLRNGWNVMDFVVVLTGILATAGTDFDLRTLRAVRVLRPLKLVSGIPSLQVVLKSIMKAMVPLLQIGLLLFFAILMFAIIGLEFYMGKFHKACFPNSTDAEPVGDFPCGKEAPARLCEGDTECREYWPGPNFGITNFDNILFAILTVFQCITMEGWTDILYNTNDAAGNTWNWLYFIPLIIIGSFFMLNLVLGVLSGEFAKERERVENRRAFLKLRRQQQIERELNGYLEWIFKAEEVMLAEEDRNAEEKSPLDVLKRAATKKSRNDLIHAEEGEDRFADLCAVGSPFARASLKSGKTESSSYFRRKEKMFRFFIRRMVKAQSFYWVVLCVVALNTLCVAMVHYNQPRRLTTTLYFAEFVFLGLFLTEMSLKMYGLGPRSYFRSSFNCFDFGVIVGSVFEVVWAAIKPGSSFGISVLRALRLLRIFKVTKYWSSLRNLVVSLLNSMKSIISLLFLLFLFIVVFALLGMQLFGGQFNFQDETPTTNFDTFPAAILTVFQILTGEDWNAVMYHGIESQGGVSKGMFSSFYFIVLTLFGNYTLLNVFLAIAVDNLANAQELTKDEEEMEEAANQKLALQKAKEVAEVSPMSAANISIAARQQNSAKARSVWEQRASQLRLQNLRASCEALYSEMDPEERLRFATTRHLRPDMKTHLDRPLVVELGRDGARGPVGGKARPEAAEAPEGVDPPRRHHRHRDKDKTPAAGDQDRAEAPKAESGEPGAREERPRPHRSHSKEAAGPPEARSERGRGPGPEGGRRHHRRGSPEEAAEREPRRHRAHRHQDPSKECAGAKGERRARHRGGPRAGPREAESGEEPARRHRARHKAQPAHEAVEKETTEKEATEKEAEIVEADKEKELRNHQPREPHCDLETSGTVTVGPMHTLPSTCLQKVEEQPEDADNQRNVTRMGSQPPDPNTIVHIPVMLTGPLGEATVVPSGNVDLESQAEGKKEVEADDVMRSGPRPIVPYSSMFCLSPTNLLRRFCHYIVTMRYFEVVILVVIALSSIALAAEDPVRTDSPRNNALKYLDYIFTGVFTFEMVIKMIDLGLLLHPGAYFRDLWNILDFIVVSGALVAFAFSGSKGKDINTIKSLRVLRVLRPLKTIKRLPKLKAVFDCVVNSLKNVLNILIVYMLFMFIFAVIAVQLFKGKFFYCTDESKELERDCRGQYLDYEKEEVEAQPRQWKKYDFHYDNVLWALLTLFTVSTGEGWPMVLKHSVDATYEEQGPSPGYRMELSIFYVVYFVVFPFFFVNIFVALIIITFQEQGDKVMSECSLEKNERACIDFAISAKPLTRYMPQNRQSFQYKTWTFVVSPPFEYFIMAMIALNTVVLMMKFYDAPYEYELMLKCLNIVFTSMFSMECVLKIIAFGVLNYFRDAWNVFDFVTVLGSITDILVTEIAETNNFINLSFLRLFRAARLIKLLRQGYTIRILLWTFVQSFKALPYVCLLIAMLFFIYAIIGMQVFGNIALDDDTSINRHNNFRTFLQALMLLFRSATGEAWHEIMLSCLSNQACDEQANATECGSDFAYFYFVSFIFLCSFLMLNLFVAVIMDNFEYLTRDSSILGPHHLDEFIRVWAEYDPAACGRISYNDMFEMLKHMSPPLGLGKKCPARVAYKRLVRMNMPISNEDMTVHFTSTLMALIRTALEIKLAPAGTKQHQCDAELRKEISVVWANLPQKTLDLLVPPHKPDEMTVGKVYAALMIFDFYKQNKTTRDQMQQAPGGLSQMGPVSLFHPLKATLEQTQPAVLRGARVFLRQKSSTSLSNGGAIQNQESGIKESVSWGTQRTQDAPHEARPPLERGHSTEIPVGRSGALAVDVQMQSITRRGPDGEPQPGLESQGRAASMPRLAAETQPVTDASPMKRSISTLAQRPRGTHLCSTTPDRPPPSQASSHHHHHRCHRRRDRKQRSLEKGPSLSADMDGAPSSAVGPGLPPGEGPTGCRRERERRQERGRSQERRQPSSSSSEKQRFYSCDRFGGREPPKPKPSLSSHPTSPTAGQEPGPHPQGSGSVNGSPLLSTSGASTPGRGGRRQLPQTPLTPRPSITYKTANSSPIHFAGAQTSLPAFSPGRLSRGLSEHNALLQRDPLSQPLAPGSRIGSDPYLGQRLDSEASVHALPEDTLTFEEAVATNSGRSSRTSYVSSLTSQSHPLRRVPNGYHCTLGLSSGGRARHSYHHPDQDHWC
Sequence of human Cav2.2 (P54289 25-956 partner limits assumed): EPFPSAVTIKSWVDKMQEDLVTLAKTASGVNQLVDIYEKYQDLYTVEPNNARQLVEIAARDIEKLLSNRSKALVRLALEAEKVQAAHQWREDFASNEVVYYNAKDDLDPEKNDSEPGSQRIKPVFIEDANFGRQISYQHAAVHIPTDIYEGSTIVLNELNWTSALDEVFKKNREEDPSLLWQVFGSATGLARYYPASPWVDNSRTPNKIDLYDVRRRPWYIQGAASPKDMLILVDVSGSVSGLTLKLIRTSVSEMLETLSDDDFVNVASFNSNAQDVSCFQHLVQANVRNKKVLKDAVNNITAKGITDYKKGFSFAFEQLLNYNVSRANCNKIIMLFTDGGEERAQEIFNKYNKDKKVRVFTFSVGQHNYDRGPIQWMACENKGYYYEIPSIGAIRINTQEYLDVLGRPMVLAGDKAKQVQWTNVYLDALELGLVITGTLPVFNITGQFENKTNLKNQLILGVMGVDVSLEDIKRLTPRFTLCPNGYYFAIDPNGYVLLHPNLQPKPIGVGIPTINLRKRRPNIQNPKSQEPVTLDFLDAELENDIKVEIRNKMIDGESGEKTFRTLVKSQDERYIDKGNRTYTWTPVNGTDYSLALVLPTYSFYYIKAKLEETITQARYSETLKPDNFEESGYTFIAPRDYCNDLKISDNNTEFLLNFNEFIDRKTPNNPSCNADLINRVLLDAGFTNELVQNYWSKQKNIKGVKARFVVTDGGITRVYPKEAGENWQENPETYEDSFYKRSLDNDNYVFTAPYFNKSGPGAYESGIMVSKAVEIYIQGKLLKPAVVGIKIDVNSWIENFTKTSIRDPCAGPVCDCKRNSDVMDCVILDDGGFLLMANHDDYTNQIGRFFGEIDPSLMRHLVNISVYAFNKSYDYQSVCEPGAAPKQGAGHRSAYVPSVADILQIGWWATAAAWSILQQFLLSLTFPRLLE
Sequence of human Cav2.2 (P54289 957-1103 partner limits assumed): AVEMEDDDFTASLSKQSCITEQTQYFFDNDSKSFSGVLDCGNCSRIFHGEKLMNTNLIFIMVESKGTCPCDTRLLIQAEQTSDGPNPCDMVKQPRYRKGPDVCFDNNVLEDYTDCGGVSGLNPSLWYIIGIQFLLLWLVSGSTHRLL
Sequence of human Cav2.2 (P54284 whole entry partner): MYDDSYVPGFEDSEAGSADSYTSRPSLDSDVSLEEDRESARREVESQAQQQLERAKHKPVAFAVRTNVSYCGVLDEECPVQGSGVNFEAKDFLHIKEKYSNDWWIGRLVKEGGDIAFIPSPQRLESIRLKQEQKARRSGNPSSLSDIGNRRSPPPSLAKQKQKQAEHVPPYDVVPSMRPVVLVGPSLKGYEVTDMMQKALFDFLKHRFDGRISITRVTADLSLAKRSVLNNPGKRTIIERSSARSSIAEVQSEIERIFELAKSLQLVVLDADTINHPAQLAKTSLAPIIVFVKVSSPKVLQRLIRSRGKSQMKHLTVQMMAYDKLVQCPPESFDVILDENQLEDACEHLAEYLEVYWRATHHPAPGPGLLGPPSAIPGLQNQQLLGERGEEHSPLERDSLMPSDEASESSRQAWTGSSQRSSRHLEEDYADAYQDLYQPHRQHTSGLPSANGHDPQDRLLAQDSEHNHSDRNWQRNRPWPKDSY
Settings: not given
In a few lines: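 Human neuroblastoma IMR32 cells were seeded at 1−1.2×10^5 cells/well and cultured 48 h at 37 °C before FLIPR calcium influx measurement. Percent inhibition at each concentration was calculated against the no-inhibitor signal, and IC50 came from sigmoidal dose-response fits.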
On to `CN[C@@H](CC(C)C)C(=O)N[C@H]1CC[C@@H]2CN(c3cccc(C(F)(F)F)c3)C[C@@H]21` [Example 606, N^2-methyl-N-{(3aR,4S,6aS)-2-[3-(trifluoromethyl)phenyl]octahydrocyclopenta[c]pyrrol-4-yl}-L-leucinamide], for which the IC50 was found to be 1.19 µM.
On the same count and under the same terms, under `CC(C)(C)CCN[C@H]1CC[C@@H]2CN(c3cccc(C(F)(F)F)n3)C[C@@H]21` [Example 611, (3aR,4S,6aS)-N-(3,3-dimethylbutyl)-2-[6-(trifluoromethyl)pyridin-2-yl]octahydrocyclopenta[c]pyrrol-4-amine] stands 0.5 µM.
Still for that read-out and setting: in the case of `CCC[C@H](NC)C(=O)N[C@@H]1CC[C@H]2CN(Cc3ccccc3)C[C@H]21` [Example 352, N^1-[(3aS,4R,6aR)-2-benzyloctahydrocyclopenta[c]pyrrol-4-yl]-N^2-methyl-L-norvalinamide] it was more than 30 µM.
The same measure, in the same setting: under `CC(C)C[C@H](NCC(C)(C)C)C(=O)N[C@H]1CC[C@@H]2CN(S(=O)(=O)c3ccc(F)cc3)C[C@@H]21` [Example 261, N^1-{(3aR,4S,6aS)-2-[(4-fluorophenyl)sulfonyl]octahydrocyclopenta[c]pyrrol-4-yl}-N^2-neopentyl-L-leucinamide] stands 1.25 µM.
Take `CC(C)(C)[C@H](N)C(=O)N[C@H]1CC[C@@H]2CN(c3cccc(C(F)(F)F)n3)C[C@@H]21` [Example 591, 3-methyl-N-{(3aR,4S,6aS)-2-[6-(trifluoromethyl)pyridin-2-yl]octahydrocyclopenta[c]pyrrol-4-yl}-L-valinamide]: the IC50 worked out at 0.5 µM.
The same measure, in the same setting: in the case of `CN[C@@H](CC(C)C)C(=O)N[C@H]1CC[C@@H]2CN(c3ccc(F)cc3C(F)(F)F)C[C@@H]21` [Example 737, N-{(3aR,4S,6aS)-2-[4-fluoro-2-(trifluoromethyl)phenyl]octahydrocyclopenta[c]pyrrol-4-yl}-N^2-methyl-L-leucinamide] it was 0.36 µM.
The same measure, in the same setting: in the case of `CN[C@@H](CC(C)C)C(=O)N[C@H]1CC[C@@H]2CN(c3ccc(F)c(Cl)c3)C[C@@H]21` [Example 773, N-[(3aR,4S,6aS)-2-(3-chloro-4-fluorophenyl)octahydrocyclopenta[c]pyrrol-4-yl]-N^2-methyl-L-leucinamide] it was 1.79 µM.
Still for that read-out and setting: in the case of `CCC[C@H](NC)C(=O)N[C@H]1CC[C@@H]2CN(c3ccc(OC(F)(F)F)cc3)C[C@@H]21` [Example 719, N^2-methyl-N-{(3aR,4S,6aS)-2-[4-(trifluoromethoxy)phenyl]octahydrocyclopenta[c]pyrrol-4-yl}-L-norvalinamide] it was 10.6 µM.
In the case of `CCC[C@H](NC)C(=O)N[C@H]1CC[C@@H]2CN(S(=O)(=O)c3cccnc3)C[C@@H]21` [Example 535, N^2-methyl-N^1-[(3aR,4S,6aS)-2-(pyridin-3-ylsulfonyl)octahydrocyclopenta[c]pyrrol-4-yl]-L-norvalinamide], the IC50 is more than 30 µM.
Same read-out and setting: in the case of `O=C(N[C@@H]1CC[C@H]2CN(Cc3cccc(C(F)(F)F)c3)C[C@H]21)C(c1ccccc1)c1ccccc1` (relative stereo) [Example 145, 2,2-diphenyl-N-{(3aS*,4R*,6aR*)-2-[3-(trifluoromethyl)benzyl]octahydrocyclopenta[c]pyrrol-4-yl}acetamide] it was 1.14 µM; in that of `CN[C@@H](CC(C)C)C(=O)N[C@H]1CC[C@@H]2CN(c3cccc(C(F)(F)F)n3)C[C@@H]21` [Example 590, N^2-methyl-N-{(3aR,4S,6aS)-2-[6-(trifluoromethyl)pyridin-2-yl]octahydrocyclopenta[c]pyrrol-4-yl}-L-leucinamide], 0.45 µM.
Still for that read-out and setting: under `CCC[C@H](NC)C(=O)N[C@H]1CC[C@H]2CN(Cc3ccccc3)C[C@H]21` [Example 359, N^1-[(3aS,4S,6aR)-2-benzyloctahydrocyclopenta[c]pyrrol-4-yl]-N^2-methyl-L-norvalinamide] stands more than 30 µM; under `O=C(CCC(F)(F)F)N[C@H]1CC[C@@H]2CN(c3cccc(C(F)(F)F)n3)C[C@@H]21` [Example 582, 4,4,4-trifluoro-N-{(3aR,4S,6aS)-2-[6-(trifluoromethyl)pyridin-2-yl]octahydrocyclopenta[c]pyrrol-4-yl}butanamide], 0.96 µM; under `FC(F)(F)c1cccc(N2C[C@H]3CC[C@H](NCc4cc5ccncc5s4)[C@H]3C2)n1` [Example 721, (3aR,4S,6aS)-N-(thieno[2,3-c]pyridin-2-ylmethyl)-2-[6-(trifluoromethyl)pyridin-2-yl]octahydrocyclopenta[c]pyrrol-4-amine], 0.87 µM.
Take `O=S(=O)(N[C@H]1CC[C@@H]2CN(c3cccc(C(F)(F)F)n3)C[C@@H]21)c1ccccc1F` [Example 703, 2-fluoro-N-{(3aR,4S,6aS)-2-[6-(trifluoromethyl)pyridin-2-yl]octahydrocyclopenta[c]pyrrol-4-yl}benzenesulfonamide]: the IC50 came out at 3.17 µM.
Still for that read-out and setting: under `CN[C@@H](CC(C)C)C(=O)N[C@H]1CC[C@@H]2CN(c3cccc(F)c3F)C[C@@H]21` [Example 730, N-[(3aR,4S,6aS)-2-(2,3-difluorophenyl)octahydrocyclopenta[c]pyrrol-4-yl]-N^2-methyl-L-leucinamide] stands 1.26 µM.
For the compound `O=C(N[C@H]1CC[C@H]2CN(Cc3ccccc3)C[C@H]21)C1(c2ccccc2)CCCCC1` (relative stereo) [Example 9, N-[(3aS*,4S*,6aR*)-2-benzyloctahydrocyclopenta[c]pyrrol-4-yl]-1-phenylcyclohexanecarboxamide], the IC50 was determined as 1.04 µM.
The same measure, in the same setting: under `CN[C@@H](CC(C)C)C(=O)N[C@@H]1CC[C@H]2CN(c3ccc(C(F)(F)F)cc3)C[C@H]21` [Example 740, N^2-methyl-N-{(3aS,4R,6aR)-2-[4-(trifluoromethyl)phenyl]octahydrocyclopenta[c]pyrrol-4-yl}-L-leucinamide] stands 2 µM; under `CN[C@@H](CC(C)C)C(=O)N[C@H]1CC[C@@H]2CN(Cc3ccc(F)cc3)C[C@@H]21` [Example 381, N^1-[(3aR,4S,6aS)-2-(4-fluorobenzyl)octahydrocyclopenta[c]pyrrol-4-yl]-N^2-methyl-L-leucinamide], more than 30 µM.
On to `O=S(=O)(N[C@@H]1CC[C@H]2CN(CCC(c3ccc(F)cc3)c3ccc(F)cc3)C[C@H]21)c1cccc(C(F)(F)F)c1` [Example 193, N-{(3aS,4R,6aR)-2-[3,3-bis(4-fluorophenyl)propyl]octahydrocyclopenta[c]pyrrol-4-yl}-3-(trifluoromethyl)benzenesulfonamide], for which the IC50 was 0.57 µM.
On the same count and under the same terms, under `Cc1n[nH]cc1CN[C@H]1CC[C@@H]2CN(c3cccc(C(F)(F)F)n3)C[C@@H]21` [Example 695, (3aR,4S,6aS)-N-[(3-methyl-1H-pyrazol-4-yl)methyl]-2-[6-(trifluoromethyl)pyridin-2-yl]octahydrocyclopenta[c]pyrrol-4-amine] stands 2.55 µM.
Still for that read-out and setting: under `COc1cccc(N2C[C@H]3CC[C@H](NC(=O)[C@@H]4C[C@@H](F)CN4)[C@H]3C2)c1` [Example 645, (4R)-4-fluoro-N-[(3aR,4S,6aS)-2-(3-methoxyphenyl)octahydrocyclopenta[c]pyrrol-4-yl]-L-prolinamide] stands more than 30 µM; under `Fc1ccc2[nH]c(CN[C@H]3CC[C@@H]4CN(c5cccc(C(F)(F)F)c5)C[C@@H]43)cc2c1` [Example 616, (3aR,4S,6aS)-N-[(5-fluoro-1H-indol-2-yl)methyl]-2-[3-(trifluoromethyl)phenyl]octahydrocyclopenta[c]pyrrol-4-amine], 4.22 µM.

The assay is the same for the next values; noted with them: read-out: IC50 (μM) or percent inhibition (* indicates 3 minute incubation, otherwise 60 minute); IC50; 60 minute pre-incubation with compound; IMR32 cells, 80 mM KCl depolarization.
Consider `O=C(N[C@@H]1CC[C@H]2CN(Cc3cccc(C(F)(F)F)c3)C[C@H]21)C(c1ccc(F)cc1)c1ccc(F)cc1` (relative stereo) [Example 146, 2,2-bis(4-fluorophenyl)-N-{(3aS*,4R*,6aR*)-2-[3-(trifluoromethyl)benzyl]octahydrocyclopenta[c]pyrrol-4-yl}acetamide], for which the IC50 worked out at 0.79 µM.
Still for that read-out and setting: in the case of `CC(C)C[C@@H](NC(=O)OC(C)(C)C)C(=O)N[C@@H]1CC[C@H]2CN(Cc3cccc(C(F)(F)F)c3)C[C@H]21` (relative stereo) [Example 149, N^2-(tert-butyloxycarbonyl)-N^1-{(3aS*,4R*,6aR*)-2-[3-(trifluoromethyl)benzyl]octahydrocyclopenta[c]pyrrol-4-yl}-D-leucinamide] it was 0.62 µM.
Consider `CC(C)C(C(=O)N[C@H]1CC[C@@H]2CN(CCCC(c3ccc(F)cc3)c3ccc(F)cc3)C[C@@H]21)c1ccccc1` (stereo partly drawn) [Example 118, N-{(3aR,4S,6aS)-2-[4,4-bis(4-fluorophenyl)butyl]octahydrocyclopenta[c]pyrrol-4-yl}-3-methyl-2-phenylbutanamide], for which the IC50 came to 1.04 µM.
Still for that read-out and setting: in the case of `CCC[C@H](NC)C(=O)N[C@H]1CC[C@@H]2CN(S(=O)(=O)c3ccc(C(C)(C)C)cc3)C[C@@H]21` [Example 543, N^1-{(3aR,4S,6aS)-2-[(4-tert-butylphenyl)sulfonyl]octahydrocyclopenta[c]pyrrol-4-yl}-N^2-methyl-L-norvalinamide] it was 3.2 µM; in that of `CC[C@H](C(=O)N[C@H]1CC[C@@H]2CN([C@@H](C)c3ccccc3)C[C@@H]21)c1ccccc1` [Example 211, (2S)-2-phenyl-N-{(3aR,4S,6aS)-2-[(1S)-1-phenylethyl]octahydrocyclopenta[c]pyrrol-4-yl}butanamide], 3.82 µM; in that of `CC(C)C(C(=O)N[C@H]1CC[C@@H]2CN(Cc3cccs3)C[C@@H]21)c1ccccc1` (stereo partly drawn) [Example 102, 3-methyl-2-phenyl-N-[(3aR,4S,6aS)-2-(thien-2-ylmethyl)octahydrocyclopenta[c]pyrrol-4-yl]butanamide], 2.77 µM.
Same read-out and setting: under `Cc1cccc(C)c1CN1C[C@H]2CC[C@H](NC(=O)C(c3ccccc3)C(C)C)[C@H]2C1` (stereo partly drawn) [Example 93, N-[(3aR,4S,6aS)-2-(2,6-dimethylbenzyl)octahydrocyclopenta[c]pyrrol-4-yl]-3-methyl-2-phenylbutanamide] stands 3.26 µM.

A word on the IC50: it is the point on the concentration scale where inhibition reaches its midpoint.
